Source: US5316919A, “Method of producing 2 KD to 10 KD peptides having no L-methionine residue” (priority 1992, dated 1994)
Where no end group is shown, it is not given here.

Test system: male ICR mice
Assay: Effects on the blood pressure (caudal vein blood pressure, noninvasive sphygmomanometer) after intravenous injection
Type: in vivo
Conditions: 40 μg/kg by injection into the caudal vein, male ICR mice of 5 weeks of age
Experimental: Two of the compounds of the invention were each administered to male ICR mice of 5 weeks of age by injection into the caudal vein at a dose of 40 μg/kg. […]
In addition, the activity was of long duration. The peptides of the invention have therapeutic utility.

Row | Substance | caudal vein blood pressure relative to physiological saline taken as 100% (5 min after administration) [%] | caudal vein blood pressure relative to physiological saline taken as 100% (10 min after administration) [%] | caudal vein blood pressure relative to physiological saline taken as 100% (15 min after administration) [%] | caudal vein blood pressure relative to physiological saline taken as 100% (20 min after administration) [%]
1 | H-HSDAVFTDNYTRLRKQLAVKKYLNSILNGP-OH [Peptide of Reference Example 3, H-His-Ser-Asp-Ala-Val-Phe-Thr-Asp-Asn-Tyr-Thr-Arg-Leu-Arg-Lys-Gln-Leu-Ala- Val-Lys-Lys-Tyr-Leu-Asn-Ser-Ile-Leu-Asn-Gly-Pro-OH] | 58.9 | 74.1 | 94.3 | 105.5
2 | H-HSDAVFTDNYTRLRKQLAVKKYLNSILNGPEA-OH [Peptide of Reference Example 1, H-His-Ser-Asp-Ala-Val-Phe-Thr-Asp-Asn-Tyr-Thr-Arg-Leu-Arg-Lys-Gln-Leu-Ala- Val-Lys-Lys-Tyr-Leu-Asn-Ser-Ile-Leu-Asn-Gly-Pro-Glu-Ala-OH] | 71.1 | 66.4 | 74.9 | 77.9
3 | vasoactive intestinal polypeptide (HSDAVFTDNYTRLRKQMAVKKYLNSILN; ends and bridges not checked; UniProt P01282 125-152, looked up) [Naturally occurring VIP, reference compound] | 83.3 | 97.2 | 95.9 | 102.8
